Measurements: paper PMC7504360 (International Journal of Molecular Sciences, 2020)
Square brackets hold non-standard residues; d marks the D form. Peptide text beside a SMILES is read from it.

What was measured:
[1] = system: ICR mice; experiment: Cytotoxicity in vivo (serum AST, ALT, BUN); set-up: species or system mouse; details: single intraperitoneal dose 1 mg/kg and 5 mg/kg, 24 h, 5 mice/group
Method: A preliminary toxicity study was conducted to determine the cytotoxic effect of Pro10-1 and Pro10-1D on ICR mice. Four-week-old mice (n = 5) were injected intraperitoneally with peptides (1 mg/Kg and 5 mg/Kg, respectively) for 24 h. After treatment, blood was withdrawn and serum was collected and then subjected to AST, ALT, and BUN analyses.

[2] = system: E. coli K1-infected mice; experiment: E. coli K1 septic shock mouse model; assay type: in vivo
Method: For sepsis model, we used E. coli K1 as an infection strain [47], and mice were randomly sorted in to 6 groups (5 mice/group). Control mice received I.P. injection of phosphate buffered saline (PBS, pH = 7.4) whereas Pro10-1 and Pro10-1D were injected with 1 mg/Kg and served as a peptide control. Mice infected with E. coli K1 (6 × 10^6 CFU/mouse, I.P.) served as a sepsis control. For treatment measures, mice were pretreated with 1 mg/kg of the respective peptides for 1 h and then infected with E. coli K1 like the septic mice. After 16 h, mice were euthanized by cervical dislocation under overdose of ether anesthesia. The blood samples, lung, liver, and kidney tissues were excised and processed for biochemical and histological analysis. Briefly, organ lysates of lung, liver, and kidney harvested from ice-cold PBS were evaluated for number of bacterial colonies. Endotoxin levels in the serum contents were quantified according to the kit protocol using Pierce LAL Chromogenic Endotoxin Quantitation Kit (Thermo Fisher Scientific, MA, USA). The levels of AST, ALT, and BUN in serum and the inflammatory cytokine levels in the serum or lung lysates were quantified as described previously.
Lung tissues of the control and an experimental group of mice fixed by paraformaldehyde (4% v/v) were evaluated for histological changes. Briefly, […] lung tissue sections were deparaffinized in xylene, rehydrated with graded ethanol, and then stained with H&E stain. The stained section was examined for neutrophil infiltration and other morbid changes with a light microscope (Eclipse Ni; Nikon, Tokyo, Japan).

[3] = system: LPS-stimulated RAW264.7 cells; experiment: TNF-α release, ELISA; assay type: cell-based, mouse; details: 25 μM, 1 h pretreatment, LPS 20 ng/mL for 16 h
Method: The presence of nitrite in culture media strongly validates the indication of NO production which was assessed by Griess assay. Briefly, RAW264.7 cell (1 × 10^5) were seeded in s 96-well plate in triplicate. Peptides (1, 5, 25, and 50 μM) were pretreated 1 h and then stimulated with 20 ng/mL of LPS purified from E. coli O111:B4 (Sigma-Aldrich, St. Louis, MO, USA) for 16 h. After incubation, equal volumes of culture media and Griess reagent were added and color change was read at 540 nm. The concentration of nitrite content was assessed using a standard curve of sodium nitrite. In addition, release of inflammatory cytokines including TNF-α and IL-6 in the culture media was quantified using an enzyme-linked immunosorbent assays kit (ELISA; R&D Systems, Minneapolis, MN, USA) and the assay was performed according to the kit protocol. The assay was conducted in triplicate, and the concentrations of TNF-α and IL-6 were evaluated by measuring the absorbance at 450 nm using a microplate reader.

[4] = Calcein leakage assay; details: 4 µM peptide, 3 min after peptide exposure, EYPE/EYPG (7:3, w/w) LUVs, pH 7.4, fluorescence ex 490/em 520 nm; triplicate
Method: We investigated the modes of action of the peptides by measuring their abilities to permeate model phospholipid membranes and Escherichia coli. The membrane-permeabilizing ability of the peptides was measured by monitoring the release of fluorescent calcein from liposomes of various compositions. We employed negatively-charged large unilamellar vesicles (LUVs) composed of 7:3 (w/w) egg yolk L-α-phosphatidylethanolamine (EYPE)/egg yolk L-α-phosphatidylglycerol (EYPG) to mimic gram-negative bacterial cells. The percentage of calcein leakage 3 min after peptide exposure was used to assess its ability to permeate the membrane. […] All Pro-peptides induced significant dye release against the negatively charged EYPE/EYPG LUVs, implying that they potently permeate bacterial cell component membranes. […]
Calcein-entrapped LUVs composed of egg yolk phosphatidylethanolamine (EYPE)/egg yolk phosphatidylglycerol EYPG (7:3, w/w) were prepared by vortexing the dried lipid in dye buffer solution (70 mM calcein, 10 mM Tris, 150 mM NaCl, and 0.1 mM Ethylenediaminetetraacetic acid (EDTA), pH 7.4) as described previously. The leakage of calcein from the LUVs was monitored by measuring fluorescence intensity at an excitation wavelength of 490 nm and an emission wavelength of 520 nm on a model RF-5301PC spectrophotometer (Shimadzu, Kyoto, Japan). […]

[5] = system: sheep red blood cells (sRBCs); experiment: Hemolytic activity; assay type: cell-based; details: 100 μM peptide, 4% (v/v) sRBCs in PBS, 1 h at 37 °C, absorbance 405 nm; three measurements averaged
Method: The hemolytic activity of all Pro-peptides were tested against sheep red blood cells (sRBCs) as described in previous reports. Fresh sRBCs were washed three times with phosphate-buffered saline (PBS) followed by centrifugation for 5 min at 2500 rpm at 4 °C. Peptides (0.2 to 100 μM) in PBS were incubated with 4% (v/v) sRBCs for 1 h at 37 °C. The contents were then centrifuged for 5 min at 1000 × g. The absorbance of the supernatant at 405 nm was used as a measure of hemolysis, and three times independent measurements were averaged. As a control, 100% hemolysis was obtained by treating sRBCs with melittin.

[6] = 1 mg/kg I.P. 1 h before E. coli K1 6 × 10^6 CFU/mouse I.P., 16 h, 5 mice/group
[7] = 1 mg/kg I.P. pretreatment, septic mice, ELISA
[8] = 1 mg/kg I.P. pretreatment, E. coli K1-infected mice = 100%

For `CC[C@@H](C)[C@@H](NC(=O)[C@@H](C)NC(=O)[C@@H](CC(C)C)NC(=O)[C@@H](Cc1c[nH]c2ccccc12)NC(=O)[C@@H](CC(C)C)NC(=O)[C@@H](CCCNC(=N)N)NC(=O)[C@H](N)CCCNC(=N)N)C(=O)N[C@H](Cc1c[nH]c2ccccc12)C(=O)N[C@H](CCCNC(=N)N)C(=O)N[C@H](CCCNC(=N)N)C(N)=O` [Pro10-1D] (H-[dR][dR][dL][dW][dL][dA][dI][dW][dR][dR]-NH2; N-terminus assumed), the “AST, ALT, and BUN elevation in serum” value [1] was “did not observe any clinical significance”, the “reduction of the number of bacteria in kidney” value [2, 6] was roughly 71% and the “reduction of the number of bacteria in liver” value [2, 6] was roughly 87%. For the same molecule, the “reduction of the number of bacteria in lung” value [2, 6] was “approximately 73%”, the “lung pathological changes (PMN infiltration), H&E histology” value ([2]; 1 mg/kg I.P. pretreatment, E. coli K1-infected mice) was “effectively alleviated the pathological changes” and the “suppression of IL-6 level in lung tissue” value [2, 7] was 62%. The “suppression of IL-6 level in serum” value [2, 7] was 56%, the “suppression of TNF-α level in lung tissue” value [2, 7] was 51% and the “suppression of TNF-α level in serum” value [2, 7] was 45%. The “reduction of serum endotoxin levels (LAL test)” value [2, 8] was “over 33%”, the “serum ALT level reduced to” value [2, 8] was 48% and the “serum AST level reduced to” value [2, 8] was 26%. For the same molecule, the “serum BUN level reduced to” value [2, 8] was 37%, the “inhibition of LPS-induced TNF-α level” value [3] was “effective inhibition” and the calcein leakage [4] was “more than 80%”. The hemolysis [5] was “no hemolytic activity”.
